Test results taken from PubChem BioAssay (NCI).
Values joined by “and” are separate entries in the source; they are usually repeats but may differ in a detail not shown here. Equal entries are not always repeated.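 How tested: cells in 96-well plates exposed to compound for 48 hours at five concentrations. GI50 = concentration required for 50% inhibition of growth. At the TGI there is no net growth.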

Columns and labels:
Test in all cases: NCI-60 cell line screen, 48 h
COLO 205 colon = tested on: COLO 205 colon
EKVX NSCLC = tested on: EKVX NSCLC
KM12 colon = tested on: KM12 colon
M14 melanoma = tested on: M14 melanoma
MCF7 breast = tested on: MCF7 breast
RPMI-8226 leukemia = tested on: RPMI-8226 leukemia
SF-268 CNS = tested on: SF-268 CNS
SN12C renal = tested on: SN12C renal
UACC-62 melanoma = tested on: UACC-62 melanoma
UACC-257 melanoma = tested on: UACC-257 melanoma

## CSC1=N/C(=C\c2ccc(C)cc2)C(=O)N1CN1CCCCC1
COLO 205 colon
  TGI: > 100 µM
EKVX NSCLC
  TGI: > 100 µM
KM12 colon
  TGI: > 100 µM
M14 melanoma
  TGI: > 100 µM
MCF7 breast
  TGI: > 100 µM
RPMI-8226 leukemia
  TGI: > 100 µM
SF-268 CNS
  TGI: > 100 µM
SN12C renal
  TGI: > 100 µM
UACC-62 melanoma
  TGI: > 100 µM

## COc1cc(O)c2c(c1)C(=O)c1cc3c(c(O)c1C2=O)C(OC1OC(C)C(OC)C(O)C1OC)C(OC)C(C)(O)C3=O (configuration not stated)
COLO 205 colon
  TGI: 13.3 µM
EKVX NSCLC
  TGI: 14.5 µM
KM12 colon
  TGI: 15.9 µM
M14 melanoma
  TGI: 9.61 µM
MCF7 breast
  TGI: 17.1 µM
RPMI-8226 leukemia
  TGI: 4.6 µM
SF-268 CNS
  TGI: 36.3 µM
UACC-257 melanoma
  TGI: 16.2 µM

## C=CCc1cc(-c2nc(=S)[nH][nH]2)ccc1N=NNc1ccc(C(=O)O)cc1
COLO 205 colon
  TGI: 58 µM
EKVX NSCLC
  TGI: > 100 µM
KM12 colon
  TGI: > 100 µM
M14 melanoma
  TGI: > 100 µM
MCF7 breast
  TGI: > 100 µM
RPMI-8226 leukemia
  TGI: > 100 µM
SF-268 CNS
  TGI: > 100 µM
SN12C renal
  TGI: > 100 µM
UACC-257 melanoma
  TGI: > 100 µM

## Cc1ccc(/C=N\NC2c3cc(Cl)ccc3Nc3nc(=O)[nH]c(C)c32)cc1 (configuration not stated)
COLO 205 colon
  TGI: > 100 µM
EKVX NSCLC
  TGI: > 100 µM
KM12 colon
  TGI: > 100 µM
M14 melanoma
  TGI: > 100 µM
RPMI-8226 leukemia
  TGI: > 100 µM
SF-268 CNS
  TGI: > 100 µM
SN12C renal
  TGI: > 100 µM
UACC-257 melanoma
  TGI: > 100 µM
UACC-62 melanoma
  TGI: > 100 µM

## O=C(O)[C@H]1CCCN1CP(=O)(O)CN1CCC[C@@H]1C(=O)O
COLO 205 colon
  TGI: > 100 µM
EKVX NSCLC
  TGI: > 100 µM
KM12 colon
  TGI: > 100 µM
M14 melanoma
  TGI: > 100 µM
MCF7 breast
  TGI: > 100 µM
SF-268 CNS
  TGI: > 100 µM
SN12C renal
  TGI: > 100 µM
UACC-257 melanoma
  TGI: > 100 µM
UACC-62 melanoma
  TGI: > 100 µM

## C[N+](C)([O-])CCOc1cc2c(c3ccccc13)-c1ccccc1C2=O
COLO 205 colon
  TGI: 32.3 µM
EKVX NSCLC
  TGI: 64.7 µM
KM12 colon
  TGI: 66.5 µM
MCF7 breast
  TGI: > 100 µM
RPMI-8226 leukemia
  TGI: 44.1 µM
SF-268 CNS
  TGI: 36.4 µM
SN12C renal
  TGI: 62.3 µM
UACC-257 melanoma
  TGI: 16.9 µM
UACC-62 melanoma
  TGI: 30.2 µM

## On1c(-c2ccccc2)c(-c2ccccc2N2CCCC2)c2ccccc21
COLO 205 colon
  TGI: > 100 µM
EKVX NSCLC
  TGI: > 100 µM
KM12 colon
  TGI: > 100 µM
M14 melanoma
  TGI: > 100 µM
RPMI-8226 leukemia
  TGI: > 100 µM
SF-268 CNS
  TGI: > 100 µM
SN12C renal
  TGI: > 100 µM
UACC-257 melanoma
  TGI: > 100 µM
UACC-62 melanoma
  TGI: > 100 µM

## O=[N+]([O-])C(=C(Nc1cccc2cccnc12)Nc1cccc2cccnc12)C(Cl)=C(Cl)Cl
COLO 205 colon
  TGI: > 100 µM
EKVX NSCLC
  TGI: > 100 µM
KM12 colon
  TGI: > 100 µM
M14 melanoma
  TGI: > 100 µM
MCF7 breast
  TGI: 54.8 µM
RPMI-8226 leukemia
  TGI: > 100 µM
SF-268 CNS
  TGI: > 100 µM
SN12C renal
  TGI: > 95.7 µM
UACC-62 melanoma
  TGI: > 100 µM

## N#CNC(=NCc1ccccc1)N(Cc1ccccc1)Cc1ccccc1
KM12 colon
  TGI: > 31.6 µM
M14 melanoma
  TGI: > 31.6 µM
MCF7 breast
  TGI: > 100 µM
RPMI-8226 leukemia
  TGI: > 31.6 µM
SF-268 CNS
  TGI: > 31.6 µM
SN12C renal
  TGI: > 31.6 µM
UACC-62 melanoma
  TGI: 23.4 µM

## O=C1CC2(CCC(O)(c3ccc4ccccc4c3)C(C(=O)c3ccc4ccccc4c3)C2)C(=O)c2ccccc2N1 (configuration not stated)
COLO 205 colon
  TGI: > 100 µM
EKVX NSCLC
  TGI: > 100 µM
M14 melanoma
  TGI: > 100 µM
MCF7 breast
  TGI: > 100 µM
SF-268 CNS
  TGI: > 100 µM
SN12C renal
  TGI: > 100 µM
UACC-257 melanoma
  TGI: > 100 µM
UACC-62 melanoma
  TGI: > 100 µM

## CCOc1cc(/C=C2/C(C)=NN(c3cccc(Cl)c3)/C2=N/c2nc3ccccc3s2)ccc1O
EKVX NSCLC
  TGI: > 100 µM
M14 melanoma
  TGI: 75.5 µM
MCF7 breast
  TGI: 81.8 µM
RPMI-8226 leukemia
  TGI: > 100 µM
SF-268 CNS
  TGI: 86.1 µM
UACC-257 melanoma
  TGI: 61.6 µM

## CCOC(=O)C1S/C(=N\C(=N)N[N+](=O)[O-])N=C1C (configuration not stated)
COLO 205 colon
  TGI: > 100 µM
EKVX NSCLC
  TGI: > 100 µM
KM12 colon
  TGI: > 100 µM
RPMI-8226 leukemia
  TGI: > 100 µM
SF-268 CNS
  TGI: > 100 µM
SN12C renal
  TGI: > 100 µM
UACC-257 melanoma
  TGI: > 100 µM

## CC(c1ccccc1)N1CCN(C(C)c2ccccc2)CC1 (configuration not stated)
EKVX NSCLC
  TGI: > 100 µM
KM12 colon
  TGI: > 100 µM
M14 melanoma
  TGI: 53 µM
RPMI-8226 leukemia
  TGI: > 100 µM
SF-268 CNS
  TGI: > 100 µM
SN12C renal
  TGI: > 100 µM
UACC-257 melanoma
  TGI: > 100 µM
UACC-62 melanoma
  TGI: > 100 µM

## Cc1c(/C=N\NC(=S)NCCNC(=S)N/N=C\c2c(C)n(C)n(-c3ccccc3)c2=O)c(=O)n(-c2ccccc2)n1C
COLO 205 colon
  TGI: > 100 µM
EKVX NSCLC
  TGI: > 100 µM
KM12 colon
  TGI: > 100 µM
M14 melanoma
  TGI: > 100 µM
SF-268 CNS
  TGI: > 100 µM
UACC-257 melanoma
  TGI: > 100 µM
UACC-62 melanoma
  TGI: > 100 µM

## C=C1CC(C#N)(C#N)[C@H]2C3CCCC3C[C@@H]12 (some centres not stated) (tested in a mixture with another compound)
EKVX NSCLC
  TGI: 98.4 µM
KM12 colon
  TGI: 43.3 µM
M14 melanoma
  TGI: 29.2 µM
MCF7 breast
  TGI: 29.8 µM
SF-268 CNS
  TGI: 61.1 µM
SN12C renal
  TGI: 30.5 µM
UACC-62 melanoma
  TGI: > 100 µM

## CCNC(=S)NNC(=O)C12CC3CC(CC(C3)C1)C2
COLO 205 colon
  TGI: > 100 µM
KM12 colon
  TGI: > 100 µM
M14 melanoma
  TGI: > 100 µM
MCF7 breast
  TGI: > 100 µM
RPMI-8226 leukemia
  TGI: > 100 µM
SF-268 CNS
  TGI: > 100 µM
SN12C renal
  TGI: > 100 µM
UACC-257 melanoma
  TGI: > 100 µM
UACC-62 melanoma
  TGI: > 100 µM

## CNc1cc2c(c3ccccc13)C(CCl)CN2C(=O)c1cc2cc(OC)c(OC)c(OC)c2[nH]1 (configuration not stated)
COLO 205 colon
  TGI: 0.0114 µM
EKVX NSCLC
  TGI: 0.0155 µM
KM12 colon
  TGI: 0.103 µM
MCF7 breast
  TGI: 0.131 µM
RPMI-8226 leukemia
  TGI: 0.0649 µM
SN12C renal
  TGI: 0.00628 µM and 0.0118 µM
UACC-62 melanoma
  TGI: 0.00209 µM

## COc1cc2c(cc1OC)C1C3CCCCC3CCN1CC2 (configuration not stated)
COLO 205 colon
  TGI: > 100 µM
EKVX NSCLC
  TGI: > 100 µM
KM12 colon
  TGI: > 100 µM
MCF7 breast
  TGI: > 100 µM
SF-268 CNS
  TGI: > 100 µM
SN12C renal
  TGI: > 100 µM
UACC-257 melanoma
  TGI: > 100 µM
UACC-62 melanoma
  TGI: > 100 µM

## O=C(O)COc1ccccc1C(=O)Nc1ccccc1
COLO 205 colon
  TGI: > 100 µM
EKVX NSCLC
  TGI: > 100 µM
KM12 colon
  TGI: > 100 µM
M14 melanoma
  TGI: > 100 µM
RPMI-8226 leukemia
  TGI: > 100 µM
SF-268 CNS
  TGI: > 100 µM
SN12C renal
  TGI: > 100 µM
UACC-257 melanoma
  TGI: > 100 µM
UACC-62 melanoma
  TGI: > 100 µM

## C=CCn1c(=O)c(C(=O)Nc2nc(C34CC5CC(CC(C5)C3)C4)cs2)c(O)c2ccccc21
COLO 205 colon
  TGI: > 100 µM
EKVX NSCLC
  TGI: > 100 µM
KM12 colon
  TGI: > 100 µM
MCF7 breast
  TGI: > 100 µM
RPMI-8226 leukemia
  TGI: 87.5 µM
SN12C renal
  TGI: > 100 µM
UACC-257 melanoma
  TGI: 22.4 µM

## Clc1ccc(-c2nnc3sc4nc5ccccc5c-4nn23)c(Cl)c1
COLO 205 colon
  TGI: > 100 µM
EKVX NSCLC
  TGI: > 100 µM
KM12 colon
  TGI: > 100 µM
M14 melanoma
  TGI: > 100 µM
MCF7 breast
  TGI: > 100 µM
SF-268 CNS
  TGI: > 100 µM
SN12C renal
  TGI: > 100 µM
UACC-257 melanoma
  TGI: > 100 µM
UACC-62 melanoma
  TGI: > 100 µM

## O=C1OCC/C1=N/O
COLO 205 colon
  TGI: > 100 µM
EKVX NSCLC
  TGI: > 100 µM
KM12 colon
  TGI: > 100 µM
M14 melanoma
  TGI: > 100 µM
RPMI-8226 leukemia
  TGI: > 100 µM
SF-268 CNS
  TGI: > 100 µM
SN12C renal
  TGI: > 100 µM
UACC-257 melanoma
  TGI: > 100 µM
UACC-62 melanoma
  TGI: > 100 µM

## CCOC(=O)N1CCC(N[C@@H]2c3cc4c(cc3C(c3cc(OC)c(O)c(OC)c3)C3C(=O)OC[C@@H]32)OCO4)CC1 (some centres not stated)
COLO 205 colon
  TGI: 15.1 µM and 13.1 µM
EKVX NSCLC
  TGI: 4.86 µM and 7.1 µM
KM12 colon
  TGI: 9.2 µM and 7.56 µM
M14 melanoma
  TGI: 6.31 µM and 8.14 µM
RPMI-8226 leukemia
  GI50: 1.46 µM and 4.12 µM
  TGI: 18.7 µM and > 25 µM
SF-268 CNS
  TGI: 30.8 µM and > 25 µM
SN12C renal
  GI50: 1.21 µM and 0.366 µM
  TGI: 2.93 µM and 1.34 µM
UACC-257 melanoma
  TGI: 36.3 µM and > 25 µM
UACC-62 melanoma
  TGI: 2.87 µM and 5.37 µM

## O=C(O)CN1CCN2CCCCCN(CC1)CCN(CC(=O)O)CC2
COLO 205 colon
  TGI: > 100 µM
EKVX NSCLC
  TGI: > 100 µM
KM12 colon
  TGI: > 100 µM
M14 melanoma
  TGI: > 100 µM
MCF7 breast
  TGI: > 100 µM
RPMI-8226 leukemia
  TGI: > 100 µM
SN12C renal
  TGI: > 100 µM
UACC-257 melanoma
  TGI: > 100 µM
UACC-62 melanoma
  TGI: > 100 µM

## O=C(O)C(Cl)(Cl)Cl
COLO 205 colon
  TGI: > 100 µM
EKVX NSCLC
  TGI: > 100 µM
KM12 colon
  TGI: > 100 µM
M14 melanoma
  TGI: > 100 µM
RPMI-8226 leukemia
  TGI: > 100 µM
SF-268 CNS
  TGI: > 100 µM
SN12C renal
  TGI: > 100 µM
UACC-257 melanoma
  TGI: > 100 µM
